Results on 15 compounds are retold here after PubChem BioAssay (NCI).

Test systems include KM12 colon; CAKI-1 renal; RPMI-8226 leukemia; SN12C renal; NCI-H23 lung; LOX IMVI melanoma; SW-620 colon; SNB-19 CNS; OVCAR-8 ovarian; RXF 393 renal.
Common to all, as to experiment: growth of human tumour cells (NCI), 48 h

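Exposure lasted 48 hours, with cells grown in 96-well plates and compounds tested at five concentrations. GI50 = concentration required for 50% inhibition of growth. TGI marks complete inhibition of growth.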

In the case of `C1C[OH+]CC[OH+]CCNCC[OH+]CC[OH+]CCN1.[Cl-].[Pt+4]`, the GI50 in the assay with KM12 colon, in the assay on CAKI-1 renal, in the assay on RPMI-8226 leukemia, in the assay on SN12C renal, in the assay on NCI-H23 lung and in the assay on LOX IMVI melanoma was > 100 µM in each case. Further, the GI50 in the assay with SW-620 colon is 57.3 µM; in the assay on SNB-19 CNS, > 100 µM; in the assay on OVCAR-8 ovarian, > 100 µM. Moreover, the TGI in the assay with KM12 colon, in the assay with CAKI-1 renal, in the assay on RPMI-8226 leukemia, in the assay with SN12C renal, with NCI-H23 lung and in the assay on LOX IMVI melanoma was > 100 µM in each case. Also, the TGI in the assay on SW-620 colon, in the assay with SNB-19 CNS and with OVCAR-8 ovarian was > 100 µM throughout.

For `COc1cc(/C=C\c2ccc(C)cc2)cc(OC)c1OC`, the GI50 in the assay on CAKI-1 renal is 0.0235 µM. Also, the TGI was > 53.8 µM with CAKI-1 renal; 25.2 µM in the assay on RPMI-8226 leukemia; > 69 µM in the assay on SN12C renal; 0.276 µM with NCI-H23 lung; 38.7 µM in the assay with LOX IMVI melanoma; > 100 µM with SW-620 colon.

For the compound `O=C(/C=C/c1ccccc1)CC1OC(=O)c2ccccc21` (stereo unspecified), the TGI was > 100 µM in the assay on KM12 colon; 82.5 µM with RPMI-8226 leukemia; > 100 µM in the assay with RXF 393 renal; > 100 µM in the assay with NCI-H23 lung; > 100 µM in the assay on LOX IMVI melanoma; > 100 µM in the assay with SW-620 colon. Also, the TGI in the assay with SNB-19 CNS and with OVCAR-8 ovarian was > 100 µM throughout.

`O=C(O)COc1ccc(O)c2c1C(=O)CCCC2=O`: the TGI in the assay with KM12 colon, in the assay on CAKI-1 renal, with RPMI-8226 leukemia, with SN12C renal, with NCI-H23 lung and with LOX IMVI melanoma was > 100 µM throughout. Besides, the TGI with SW-620 colon, with SNB-19 CNS and with OVCAR-8 ovarian was > 100 µM in each case.

Take `CC(=O)N[C@@H]1C(O)CN2C(=O)C(=O)O[C@H](C(O)CO)[C@@H]12` (stereo partly specified): the TGI in the assay with KM12 colon, with RPMI-8226 leukemia, in the assay with RXF 393 renal, in the assay on LOX IMVI melanoma, in the assay with SW-620 colon and with SNB-19 CNS was > 100 µM each time. The TGI in the assay on OVCAR-8 ovarian was > 100 µM.

Regarding `CC1CCP(=O)(c2ccccc2)c2ccccc21` (stereo unspecified), the TGI is > 100 µM with KM12 colon; > 100 µM with RPMI-8226 leukemia; 85.6 µM in the assay on SN12C renal; > 100 µM in the assay with RXF 393 renal; > 100 µM with NCI-H23 lung; 58 µM with LOX IMVI melanoma. Moreover, the TGI with SNB-19 CNS and in the assay with OVCAR-8 ovarian was > 100 µM in each case.

Take `Oc1cc(O)c(Oc2cccc(O)c2O)c(O)c1`: the TGI in the assay with KM12 colon, in the assay on CAKI-1 renal, in the assay on RPMI-8226 leukemia, in the assay with SN12C renal, with RXF 393 renal and in the assay on NCI-H23 lung was > 100 µM each time. Also, the TGI in the assay on SW-620 colon, in the assay on SNB-19 CNS and in the assay on OVCAR-8 ovarian was > 100 µM in each case.

With `O=C(c1ccccc1)C1CCCCN1C(=O)c1ccccc1` (stereo unspecified), the TGI in the assay on KM12 colon, with CAKI-1 renal, in the assay with RPMI-8226 leukemia, in the assay on SN12C renal, with RXF 393 renal and in the assay on SW-620 colon was > 100 µM in each case. Moreover, the TGI in the assay on SNB-19 CNS and in the assay with OVCAR-8 ovarian was > 100 µM each time.

`CCCCS(=O)CCC(N)C(=O)O` (stereo unspecified): the TGI in the assay on KM12 colon, in the assay on CAKI-1 renal, in the assay with SN12C renal, in the assay with RXF 393 renal, in the assay on NCI-H23 lung and in the assay on SW-620 colon was > 100 µM throughout. The TGI with SNB-19 CNS and in the assay with OVCAR-8 ovarian was > 100 µM throughout.

For the compound `OCCCOC(c1ccccc1)(c1ccccc1)c1ccccc1`, the TGI in the assay on KM12 colon, in the assay on CAKI-1 renal, with RPMI-8226 leukemia, in the assay on SN12C renal, with NCI-H23 lung and in the assay on LOX IMVI melanoma was > 100 µM in each case. Moreover, the TGI in the assay on SW-620 colon and in the assay with OVCAR-8 ovarian was > 100 µM throughout.

With `O=C(Nc1cccs1)c1c(O)[nH]c(=S)[nH]c1=O`, the TGI with KM12 colon, in the assay on CAKI-1 renal, with RPMI-8226 leukemia, in the assay on SN12C renal, in the assay on NCI-H23 lung and with LOX IMVI melanoma was > 100 µM each time. For the same compound, the TGI in the assay with SW-620 colon, in the assay on SNB-19 CNS and in the assay with OVCAR-8 ovarian was > 100 µM in each case.

For `O=C(c1ccc2ccccc2c1)c1c(C(F)(F)F)n([O-])c2cc(F)c(F)cc2[n+]1=O`, the GI50 with KM12 colon was 0.937 µM; in the assay on CAKI-1 renal it was 1.82 µM; in the assay on RPMI-8226 leukemia it was 1.12 µM; in the assay on RXF 393 renal it was 1.49 µM; in the assay with NCI-H23 lung it was 2.62 µM; in the assay on SNB-19 CNS, 2 µM. Moreover, the TGI is 8.1 µM in the assay with KM12 colon; 3.97 µM with CAKI-1 renal; 3.79 µM in the assay on RPMI-8226 leukemia; 2.97 µM in the assay with RXF 393 renal; 9.29 µM in the assay on NCI-H23 lung; 4.1 µM in the assay on SNB-19 CNS.

In the case of `CCCn1c(SC)nc(COC(=O)NC)c1COC(=O)NC`, the TGI in the assay on KM12 colon, with CAKI-1 renal, in the assay on RPMI-8226 leukemia, in the assay on SN12C renal, in the assay on NCI-H23 lung and with LOX IMVI melanoma was > 100 µM throughout. Moreover, the TGI with SW-620 colon, in the assay with SNB-19 CNS and in the assay with OVCAR-8 ovarian was > 100 µM in each case.

As to `CCCCC1CC(c2cccc([N+](=O)[O-])c2)=NO1` (stereo unspecified), the TGI in the assay with KM12 colon, in the assay on CAKI-1 renal, with RPMI-8226 leukemia, with SN12C renal, in the assay with NCI-H23 lung and in the assay with SW-620 colon was > 100 µM each time. In addition, the TGI in the assay with SNB-19 CNS and in the assay on OVCAR-8 ovarian was > 100 µM each time.

For `CCOC(=O)C1=C(c2ccccc2)N(C)c2ccccc2S1`, the TGI in the assay on CAKI-1 renal is > 100 µM; with RPMI-8226 leukemia it was 66.5 µM; in the assay on SN12C renal it was 58.2 µM; in the assay on NCI-H23 lung it was 60.4 µM; in the assay on LOX IMVI melanoma it was 30.3 µM; in the assay with SW-620 colon, > 100 µM. Further, the TGI with SNB-19 CNS and with OVCAR-8 ovarian was > 100 µM each time.
